Laboratory results published in PMC10254852, “Design, Synthesis and Anticancer Evaluation of Nitroimidazole Radiosensitisers” (Molecules, 2023).
Where two headings read alike, the source gives them in different places.

Assays:
[1] = test system: HCT116/54C tumours; assay: Tumour radiosensitisation: ex vivo clonogenic assay; format: in vivo, NIH-III mice
Description: (§1) Specific pathogen-free six- to eight-week-old female NIH-III mice, bred in the Vernon Jansen Unit, University of Auckland, were used for animal experiments. Animals had ad libitum access to food and water and were maintained in microisolator cages on a 12 h light/dark cycle. All treatments were administered by i.v. injection at a dose of 2.2 mmol/kg and injection volume of 10 mL/kg. Compounds 2, 34 and 38 were administered as solutions in saline containing 1% DMSO or for 9–12 as solutions in saline containing 2 molar equivalents of NaHCO3. Control animals received an i.v. injection of saline at 10 mL/kg. All animal experiments were conducted under the auspices of the University of Auckland Animal Ethics Committee (approval 1781).
(§2) Compounds were evaluated for in vivo radiosensitisation of hypoxic cells in HCT116/54C and UT-SCC-74B human tumour xenografts using clonogenic survival as an endpoint, using previously report methods. Tumours were grown subcutaneously on the flanks of NIH-III mice by injecting 5 × 10^6 HCT116/54C cells or UT-SCC-74B cells. Once tumours reached a volume of approximately 250 mm^3, mice were randomly assigned to 4 treatment groups and treated with: (A) vehicle control, (B) 10 Gy RAD only, (C) sensitiser only, or (D) sensitiser given before 10 Gy RAD. Drugs were administered as a single i.v. dose at 2.2 mmol/kg. […] Tumours were excised 18 h after treatment, and tumour cells were dissociated enzymatically and plated to determine the number of surviving (clonogenic) cells per gram of tumour tissue. SF and SR were calculated as described above. Statistical significance of drug effects was tested using one-way ANOVA with Sidak tests for multiple comparisons vs. radiation alone (Table 5).

[2] = test system: UT-SCC-74B tumours; assay: as above; format: in vivo, NIH-III mice
Description: as §1, §2

[3] = test system: FaDu cells; assay: In vitro cytotoxicity, 4 h exposure oxic/anoxic, 5-day regrowth, sulforhodamine B; format: cell-based; settings: for IC50: Homo sapiens, 4 h exposure, mean ± SEM
Text: (§3) This allowed derivation of hypoxia cytotoxicity ratios (HCR) as IC50(oxic)/IC50(anoxic) in an HCT116 subclone HCT116/54C and two HNSCC cell lines, FaDu and UT-SCC-74B (Table 2).
(§4) HCT116/54C is an HCT116 subline that originated from a mixed culture with UT-SCC-54C cells, which was supplied alongside UT-SCC-74B by Prof. Bradly Wouters (University Health Network, Toronto, ON, Canada). HCT116/54C and UT-SCC-74B cells were passaged in minimum essential media (MEM, ThermoFisher Scientific, Waltham, MA, USA) with 10% foetal calf serum (FCS, Moregate Biotech, Hamilton, New Zealand), 4.5 mg/mL D-glucose (Sigma-Aldrich, St. Louis, MO, USA) and 20 mM HEPES (Sigma-Aldrich). FaDu cells were sourced from American Type Culture Collection and cultured in αMEM (ThermoFisher Scientific) with 10% FCS. All cell lines were confirmed mycoplasma-free by PlasmoTest (InvivoGen, San Diego, CA, USA) and were derived from STR-authenticated cryopreserved stocks. Log-phase cells were seeded into 96-well plates at 800 cells/well for HCT116/54C and 1500 cells/well for FaDu. […] After drug washout, cells were grown and stained as for the oxic IC50 assays. The hypoxic cytotoxicity ratio HCR was determined as HCR = IC50(oxic)/IC50(anoxic).

[4] = Tolerability at maximum achievable dose, i.v.; format: in vivo; settings: i.v. injection, NIH-III mice
Text: The most promising 2-nitroimidazole 34 and 5-nitroimidazole 38 compounds were selected for in vivo evaluation on the basis of solubility, in vitro cytotoxicity and radiosensitisation data. These compounds were both well tolerated by i.v. injection in NIH-III mice at their maximum achievable dose (MAD) of 2.2 mmol/kg. This MAD was also achieved for some of our earlier compounds, but only when we employed a phosphate prodrug strategy owing to their poor solubility. […] The Cmax and AUC exceeded that achieved for earlier phosphate prodrugs 9–12, but was less than 2. On this basis we advanced both morpholine analogues into in vivo radiosensitisation studies.
as §1

[5] = test system: HCT116/54C cells; assay: In vitro cytotoxicity, 4 h exposure oxic/anoxic, 5-day regrowth, sulforhodamine B; format: cell-based, human; settings: HCT116/54C; for IC50: Homo sapiens, 4 h exposure, mean ± SEM, n = 3–4
Text: as §3, §4

[6] = test system: UT-SCC-74B cells; assay: as above; format: cell-based, human; settings: for IC50: Homo sapiens, 4 h exposure, mean ± SEM
Text: as §3, §4

[7] = test system: HCT116/54C tumour xenografts; assay: Tumour growth inhibition in combination with radiation; format: in vivo, NIH-III mice; settings: HCT116/54C tumours
Description: as §1
Compounds were evaluated for their ability to inhibit tumour growth in combination with a single dose of radiation (10 Gy) in HCT116/54C or UT-SCC-74B tumour xenografts on the backs of NIH-III mice. In addition, a fractionated radiation schedule (5 Gy on Days 1, 7 and 14) was explored in HCT116/54C tumour xenografts. Mice were randomly assigned to 4 treatment groups and treated with: (A) vehicle control, (B) 10 Gy RAD only, (C) sensitiser only, or (D) sensitiser given 10 min before 10 Gy RAD. Drugs were administered by i.v. injection at 2.2 mmol/kg either as a single dose or three doses on Days 1, 7 and 14 in the fractionated study. Treatment commenced when the average tumour size reached approximately 250 mm^3, and tumour size was measured until study endpoint. Mice were placed in a custom-built lead-shielded jig that allowed irradiation of the whole tumour but shielded the mouse from radiation. Survival analysis represented the time taken for tumours to increase in relative tumour volume by 4× from the start of treatment (RTV^4). The significance of differences in activity between the groups was assessed by log-rank with Holm–Sidak multiple comparison analysis.

[8] = test system: HCT116/54C cells; assay: In vitro radiosensitisation under anoxia, clonogenic survival; format: cell-based, human; settings: compound 1 mM, radiation dose for 1% survival/radiation dose for 1% survival with compound, mean ± SEM
Description: Next, we evaluated in vitro radiosensitisation by using a representative subset of nitroimidazole compounds in HCT116/54C cells with a clonogenic survival endpoint. Radiosensitisation was determined by treating cells under anoxia with a range of radiation doses alone and with compounds at equimolar doses (1 mM). Sensitiser enhancement ratios (SER) were calculated as the ratio of radiation dose required for 1% clonogenic survival alone or with compound (Table 3).
Cells were seeded onto 96-well plates at 10^5 cells per well and allowed to attach for 2 h. […] The plates were irradiated (Eldorado 78 ^60Co teletherapy unit, ~2 Gy/min) with 15 Gy under anoxia at room temperature for SR experiments. A metal wedge placed on the top of the metal chamber was used to achieve a graduated radiation dose across the plate, varying from 7 to 29 Gy, calibrated by Fricke dosimetry with ammonium thiocyanate as previously described for SER experiments. The control plate (compound alone, no radiation) was left inside the anaerobic chamber at room temperature during the irradiation period. After treatment, the cells were trypsinized and suspended in usual media + 1% penicillin-streptomycin (ThermoFisher Scientific), and 10-fold serial dilutions were plated for clonogenic survival. After 10 days, plates were stained with methylene blue (2 g/L in EtOH/H2O, 1:1 v/v) and colonies with more than 50 cells were counted. The surviving fraction (SF) was determined as: SF = PE(irradiated)/PE(control) where the plating efficiency (PE) = (No. of colonies)/(No. of cells plated). SF was plotted against radiation dose. Survival ratios (SR) were calculated: SR = (cell survival with radiation)/(cell survival with drug + radiation). Sensitizer enhancement ratios (SER) were calculated: SER = (radiation dose for 1% survival without compound)/(radiation dose for 1% survival with compound).

[9] = 2.2 mmol/kg i.v. 5 min prior to 10 Gy radiation, surviving fraction after radiation/surviving fraction after drug + radiation
[10] = 2.2 mmol/kg i.v. + 10 Gy, one-way ANOVA
[11] = 2.2 mmol/kg i.v., 10 Gy, mechanism experiment (Figure 3)
[12] = anoxic, n = 3–4, read-out: IC50 Anoxic
[13] = oxic, n = 3–4, read-out: IC50 Oxic

SMILES: O=[N+]([O-])c1cncn1CS(=O)(=O)NCCN1CCOCC1 [Compound 38]
- Sensitisation Ratio [1, 9]: 3.43
- enhancement of tumour killing of radiotherapy (RAD vs drug + RAD) [1, 10]: significantly enhanced the tumour killing of radiotherapy
- SR, drug given 5 min before radiation [1, 11]: 8.26
- SR, drug given 20 min after radiation [1, 11]: 1.38
- Sensitisation Ratio [2, 9]: 11.5
- enhancement of tumour cell killing by radiotherapy (RAD vs drug + RAD) [2, 10]: significantly enhanced tumour cell killing by radiotherapy
- IC50 [3, 12]: 1.8 ± 0.1 mM
- IC50 [3, 13]: 10.6 ± 0.6 mM
- HCR ([3]; IC50(oxic)/IC50(anoxic)): 5.8
- maximum achievable dose (MAD), well tolerated [4]: 2.2 mmol/kg
- HCR ([5]; IC50(oxic)/IC50(anoxic)): 11.2
- IC50 ([5]; anoxic, read-out: IC50 Anoxic): 1.2 ± 0.1 mM
- IC50 ([5]; oxic, read-out: IC50 Oxic): 13.7 ± 2 mM
- IC50 [6, 12]: 1.5 ± 0.3 mM
- IC50 [6, 13]: 13.1 ± 2.8 mM
- HCR ([6]; IC50(oxic)/IC50(anoxic)): 8.6
- survival (time to RTV^4) vs radiation alone ([7]; fractionated radiation, p < 0.05): significantly increased survival compared to radiation alone
- tumour growth delay with fractionated radiation ([7]; qw × 3, 5 Gy, 2.2 mmol/kg i.v.): delayed tumour growth relative to radiation alone
- SER at 1 mM [8]: 1.39 ± 0.01
